Reference: ChEMBL document CHEMBL1143536, “QSAR analyses of conformationally restricted 1,5-diaryl pyrazoles as selective COX-2 inhibitors: application of connection table representation of ligands” (Bioorg Med Chem Lett, 2005)

Experiments:
[1] = In vitro inhibitory concentration against Prostaglandin G/H synthase 1 (COX-1)
[2] = Ratio of inhibitory concentration against prostaglandin G/H synthase 1 to that of prostaglandin G/H synthase 2
[3] = biological target: T1, Prostaglandin G/H synthase 2 (Homo sapiens, UniProt P35354); assay: In vitro inhibitory concentration against Prostaglandin G/H synthase 2 (COX-2)
T1 sequence (P35354 whole entry): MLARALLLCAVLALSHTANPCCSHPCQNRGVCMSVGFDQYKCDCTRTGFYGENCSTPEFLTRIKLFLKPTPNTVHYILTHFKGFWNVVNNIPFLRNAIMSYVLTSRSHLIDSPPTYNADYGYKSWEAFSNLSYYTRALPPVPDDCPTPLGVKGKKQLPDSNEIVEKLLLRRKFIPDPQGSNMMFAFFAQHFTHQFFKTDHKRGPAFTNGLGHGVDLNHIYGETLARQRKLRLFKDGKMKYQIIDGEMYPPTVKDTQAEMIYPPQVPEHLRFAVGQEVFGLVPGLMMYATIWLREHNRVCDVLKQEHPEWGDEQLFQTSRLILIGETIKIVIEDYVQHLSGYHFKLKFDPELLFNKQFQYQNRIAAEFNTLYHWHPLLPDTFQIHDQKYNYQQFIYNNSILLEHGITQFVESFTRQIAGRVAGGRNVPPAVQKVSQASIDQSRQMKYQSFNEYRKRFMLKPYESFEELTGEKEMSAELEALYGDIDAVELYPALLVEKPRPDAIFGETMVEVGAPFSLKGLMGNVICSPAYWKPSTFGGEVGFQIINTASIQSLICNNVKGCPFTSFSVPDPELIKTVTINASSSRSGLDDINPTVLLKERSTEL

SMILES	Log IC50 [1]	Ratio [2]	IC50 [3] [nM]
COc1ccc2c(c1F)CSc1c(C(F)(F)F)nn(-c3ccc(S(N)(=O)=O)cc3)c1-2	-5.56	2.48	8.91
COc1ccc2c(c1F)CSc1c(C(F)(F)F)nn(-c3ccc(S(C)(=O)=O)cc3)c1-2	–	–	75.9
NS(=O)(=O)c1ccc(-n2nc(C(F)(F)F)c3c2-c2ccccc2SC3)cc1	-5.01	–	–
COc1ccc2c(c1F)C[S+]([O-])c1c(C(F)(F)F)nn(-c3ccc(S(N)(=O)=O)cc3)c1-2 (stereo not drawn)	–	–	1510
NS(=O)(=O)c1ccc(-n2nc(C(F)(F)F)c3c2-c2ccccc2OC3)cc1	-5.15	0.72	–
COc1ccc2c(c1F)CSc1c(C(F)F)nn(-c3ccc(S(N)(=O)=O)cc3)c1-2	–	–	32.4

More lines, now with the values ahead:

Log IC50 [1]	Ratio [2]	IC50 [3] [nM]	SMILES
-5.57	2.58	6.03	NS(=O)(=O)c1ccc(-n2nc(C(F)(F)F)c3c2-c2ccc(F)c(F)c2CS3)cc1
-6.4	1.3	–	NS(=O)(=O)c1ccc(-n2nc(C(F)(F)F)c3c2-c2ccccc2CS3)cc1
-6.57	0.84	–	NS(=O)(=O)c1ccc(-n2nc(C(F)(F)F)c3c2-c2ccc(F)cc2CS3)cc1
-4.95	2.84	15.8	Cc1ccc2c(c1F)CSc1c(C(F)(F)F)nn(-c3ccc(S(N)(=O)=O)cc3)c1-2
-5.2	2.47	20.9	NS(=O)(=O)c1ccc(-n2nc(C(F)(F)F)c3c2-c2cccc(F)c2CS3)cc1
-6.12	0.7	–	N#Cc1nn(-c2ccc(S(N)(=O)=O)cc2)c2c1SCc1cc(F)ccc1-2
-6.52	1.36	–	COc1ccc2c(c1)CSc1c(C(F)(F)F)nn(-c3ccc(S(N)(=O)=O)cc3)c1-2
-6.1	1.56	–	Cc1ccc2c(c1)CSc1c(C(F)(F)F)nn(-c3ccc(S(N)(=O)=O)cc3)c1-2
